According to PubChem BioAssay AID330 (DTP/NCI, 2004):
“And” between values parts separate entries of the source, which are not always exact repeats. Identical values can stand only once. Inconclusive results and toxic doses are left out. The calls were made as follows: active = survival T/C of 150% or more; inactive = T/C below 125% in these data.

Test system: P388 leukemia ip, CD2F1 mice, survival T/C
Assay: NCI In Vivo Anticancer Drug Screen. Data for tumor model P388 Leukemia (intraperitoneal) in CD2F1 (CDF1) mice
Conditions: endpoint: median survival time, higher = longer survival
Summary of the method: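 Mice carrying the transplanted tumor received test compound or vehicle. Survival was recorded in each group, and the value is the treated-group measurement divided by that of the vehicle-treated control group.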

[1] = dose: 50.0 mg/kg/injection, schedule: Q01DX005 (ip), vehicle: saline with Tween-80
[2] = dose: 100.0 mg/kg/injection, schedule: Q01DX005 (ip), vehicle: saline with Tween-80

Measured: T/C

CCNc1cc(N)[n+](CC)c2n[nH]c(/N=C/c3cc(Cl)cc(Cl)c3O)c12
inactive: [1] 97 % of control | [2] 87 % of control | dose: 200.0 mg/kg/injection, schedule: Q01DX005 (ip), vehicle: saline with Tween-80 93 % of control

N=C(N)SCc1cccc2c(=O)cc(-c3ccccc3)oc12
inactive: dose: 25.0 mg/kg/injection, schedule: Q01DX009 (ip), vehicle: saline 118 % of control | dose: 50.0 mg/kg/injection, schedule: Q01DX009 (ip), vehicle: saline 86 % of control and 93 % of control | dose: 200.0 mg/kg/injection, schedule: Q01DX009 (ip), vehicle: saline 113 % of control and 122 % of control

Cc1nnc(NC/C=C/c2ccccc2)s1
inactive: dose: 60.0 mg/kg/injection, schedule: Q01DX005 (ip), vehicle: saline with Tween-80 100 % of control | dose: 120.0 mg/kg/injection, schedule: Q01DX005 (ip), vehicle: saline with Tween-80 96 % of control | dose: 240.0 mg/kg/injection, schedule: Q01DX005 (ip), vehicle: saline with Tween-80 95 % of control

O=[N+]([O-])c1cccc2c(-c3nccc4c([N+](=O)[O-])cccc34)nccc12
inactive: [1] 87 % of control | [2] 87 % of control

C1=C(c2ccccc2)[P+](c2ccccc2)(c2ccccc2)C=C(c2ccccc2)[P+]1(c1ccccc1)c1ccccc1
inactive: dose: 16.5 mg/kg/injection, schedule: Q04DX003 (ip), vehicle: saline 109 % of control | dose: 25.0 mg/kg/injection, schedule: Q04DX003 (ip), vehicle: saline 109 % of control | dose: 37.5 mg/kg/injection, schedule: Q04DX003 (ip), vehicle: saline 109 % of control

Cc1ncc(CN2CSC(CCO)C2C)c(N)n1 (stereo unspecified)
inactive: dose: 60.0 mg/kg/injection, schedule: Q01DX005 (ip), vehicle: Klucel (hydroxypropylcellulose) (HPC) 100 % of control | dose: 120.0 mg/kg/injection, schedule: Q01DX005 (ip), vehicle: Klucel (hydroxypropylcellulose) (HPC) 106 % of control | dose: 240.0 mg/kg/injection, schedule: Q01DX005 (ip), vehicle: Klucel (hydroxypropylcellulose) (HPC) 105 % of control

CCC1CCC2CCCCN2CO1 (stereo unspecified)
inactive: dose: 12.5 mg/kg/injection, schedule: Q01DX005 (ip), vehicle: saline 101 % of control | dose: 25.0 mg/kg/injection, schedule: Q01DX005 (ip), vehicle: saline 118 % of control | dose: 50.0 mg/kg/injection, schedule: Q01DX005 (ip), vehicle: saline 114 % of control and 123 % of control | dose: 100.0 mg/kg/injection, schedule: Q01DX005 (ip), vehicle: saline 114 % of control and 121 % of control
